Measured values from publication PMC6272185 (Molecules, 2015).
In brackets after ≈: the same amount, converted by molar mass. Counter-ions that a name gives are not always drawn. Like-named read-outs stand apart in the source and are kept apart here.

Tests used:
[1] = test system: NO production by LPS-stimulated RAW 264.7 macrophages; test: Inhibition of NO production by LPS-stimulated macrophages (Griess); type: cell-based, murine; details: mean ± SD, n = 3
M. bovis BCG = test: microbe, parasite or virus in culture; type: cell-based, Mycobacterium bovis BCG; details: Mycobacterium tuberculosis variant bovis BCG, BCG, 168 h; for MIC50: read-out: MIC50 M. bovis BCG; for MIC90: read-out: MIC90 M. bovis BCG
[2] = test system: TNF-α production by LPS-stimulated RAW 264.7 macrophages; test: Inhibition of TNF-α production by LPS-stimulated macrophages (ELISA); type: cell-based, murine; details: for IC50: Mus musculus, RAW264.7, LPS (1 µg/mL)-stimulated RAW 264.7, 24 h, mean ± SD, n = 3, read-out: IC50 TNF-α
[3] = Macrophage cytotoxicity, LDH release assay; type: cell-based, murine; details: mouse, RAW 264.7 macrophages stimulated with LPS; LPS-stimulated RAW 264.7, LDH release; mean ± SD, n = 3
M. tuberculosis H37Rv = test: microbe, parasite or virus in culture; type: cell-based, Mycobacterium tuberculosis; details: Mycobacterium tuberculosis
[4] = test system: PGE2 production by LPS-stimulated RAW 264.7 macrophages; test: Inhibition of PGE2 production by LPS-stimulated macrophages (ELISA); type: cell-based, murine; details: Mus musculus, RAW264.7, 24 h, read-out: IC50 PGE2
Method: (§1) Murine RAW 264.7 macrophage cell line (American Type Culture Collection, Manassas, VA, USA), was cultured in Dulbecco’s modified Eagle’s medium (DMEM-F12) supplemented with 10% Fetal Bovine Serum (FBS) and gentamicin (50 µg/mL) in 5% CO2 atmosphere at 37 °C. For experiments, the cells were seeded in 96-well plates (1 × 10^5 cells/well) and incubated for 24 h at 37 °C. For macrophage stimulation, the cell cultures were treated with LPS (1 µg/mL) and incubated for additional 24 h in the presence or absence of the chalcone samples (samples 1–41) that were used at concentrations of 100, 20, 4 and 0.8 µg/mL. In some experiments, a nitric oxide (NO) inhibitor, L-NMMA (20 μg/mL), was used as a positive control of NO inhibition, and a non-steroidal anti-inflammatory drug indomethacin, known to inhibit production of prostaglandins, was used as a positive control of PGE2 inhibition.
(§2) The frozen culture supernatants samples were thawed and immediately analyzed using commercially available enzyme-linked immunosorbent assay (ELISA) kits to measure TNF-α, IL-1β (BD Biosciences) and PGE2 (R&D Systems, Minneapolis, MN, USA), according to the manufacturer’s instructions. Standard curves for each mediator were generated using reference cytokine concentrations supplied by the manufacturer. Nitric oxide (NO) generation was assessed by the Griess method to measure nitrites, which are stable breakdown NO products.

[5] = test system: IL-1β production by LPS-stimulated RAW 264.7 macrophages; test: Inhibition of IL-1β production by LPS-stimulated macrophages (ELISA); type: cell-based, murine; details: for IC50: Mus musculus, RAW264.7, 24 h, read-out: IC50 IL-1β
Method: as §1, §2

[6] = Mus musculus, RAW264.7, 24 h, LPS (1 µg/mL)-stimulated RAW 264.7, 24 h, read-out: IC50 NO
[7] = LPS (1 µg/mL)-stimulated RAW 264.7, 24 h, read-out: IC50 NO
[8] = Mus musculus, RAW264.7, 24 h, read-out: IC50 NO, LPS (1 µg/mL)-stimulated RAW 264.7, 24 h
[9] = H37RV, 120 h, read-out: MIC50 M. tuberculosis H37Rv
[10] = Table 5, same values as M. tuberculosis H37Rv in Table 3, read-out: MIC50

Row | SMILES | IC50 [1, 6] [µM] | MIC50 (M. bovis BCG) [µM] | MIC90 (M. bovis BCG) [µM] | IC50 [2] [µM] | IC50 [3] [µM] | IC50 [1, 7] [µM] | IC50 [1, 8] [µM] | MIC90 (M. tuberculosis H37Rv; H37RV, 120 h) [µM] | MIC50 (M. tuberculosis H37Rv; [9]) [µM] | MIC50 (M. tuberculosis H37Rv; [10]) [µM] | IC50 [4] [µM] | inhibition of TNF-α ([2]; LPS-stimulated RAW 264.7) | inhibition of IL-1β ([5]; LPS-stimulated RAW 264.7) | IC50 [5] [µM]
1 | COc1ccc(/C=C/C(=O)c2ccccc2Cl)cc1OC [Chalcone 36] | 188 ± 4.1 | 270 ± 3.9 (≈ 81.6 µg/mL) | > 330 | > 330 | > 330 | – | – | – | – | – | – | – | – | –
2 | O=C(/C=C/c1ccccc1)c1ccccc1 [Chalcone 1, 1,3-diphenyl-2-propenone, reference compound] | 41.6 ± 2 | 137 ± 4.7 (≈ 28.6 µg/mL) | 383 ± 9.1 (≈ 79.8 µg/mL) | > 480 | 177 ± 9.5 | – | – | – | – | – | – | – | – | –
3 | O=C(/C=C/c1ccc([N+](=O)[O-])cc1)c1ccccc1Cl [Chalcone 41] | – | 30.5 ± 4.7 (≈ 8.77 µg/mL) | 247 ± 7.2 (≈ 71 µg/mL) | 68.5 ± 3.3 | > 348 | 11.2 ± 5 | < 21 | 275 ± 6.7 (≈ 79.2 µg/mL) | 82.1 ± 4.3 (≈ 23.6 µg/mL) | 82.1 ± 4.3 (≈ 23.6 µg/mL) | 67.4 ± 2.2 | strongly inhibit | potent inhibitors | 13.5 ± 3.9
4 | O=C(/C=C/c1ccc2c(c1)OCO2)c1ccccc1Cl [Chalcone 35] | 160 ± 4.7 | > 349 | > 349 | > 349 | > 349 | – | – | – | – | – | – | – | – | –
5 | COc1ccc(C(=O)/C=C/c2ccc([N+](=O)[O-])cc2)cc1 [Chalcone 40] | – | 14.5 ± 3.1 (≈ 4.11 µg/mL) | > 353 | > 353 | > 353 | 13.5 ± 5.5 | < 21 | 352 ± 5.9 (≈ 99.7 µg/mL) | 131.7 ± 1.3 (≈ 37.3 µg/mL) | 131.7 ± 1.3 (≈ 37.3 µg/mL) | > 413 | – | – | > 353
6 | Cc1ccc(C(=O)/C=C/c2ccccc2Cl)cc1 [Chalcone 23] | > 390 | > 390 | > 390 | > 390 | > 390 | – | – | – | – | – | – | – | – | –
7 | COc1ccc(/C=C/C(=O)c2ccc(C)cc2)cc1 [Chalcone 21] | 30.6 ± 4.7 | 33.3 ± 5.4 (≈ 8.4 µg/mL) | 362 ± 5.9 (≈ 91.4 µg/mL) | > 396 | > 396 | – | – | 368 ± 5.2 (≈ 92.9 µg/mL) | 66.9 ± 6.2 (≈ 16.9 µg/mL) | 66.9 ± 6.2 (≈ 16.9 µg/mL) | 50.1 ± 1 | – | – | > 396
8 | [H]/N=C(/NC)NCCC[C@H](N)C(=O)O [L-NMMA, N^G-Monomethyl-L-arginine acetate salt, reference compound] | 78.3 ± 6.5 | – | – | – | – | – | – | – | – | – | – | – | – | –
9 | O=C(/C=C/c1ccc2c(c1)OCO2)c1ccc(Br)cc1 [Chalcone 12] | – | 84.9 ± 4.7 (≈ 28.1 µg/mL) | 229.6 ± 2.2 (≈ 76 µg/mL) | > 302 | > 302 | 19.6 ± 3.3 | < 21 | – | – | – | 50.3 ± 0.3 | – | – | > 302
10 | O=C(/C=C/c1ccc([N+](=O)[O-])cc1)c1ccc(Br)cc1 [Chalcone 38] | > 301 | 97.4 ± 4.2 (≈ 32.4 µg/mL) | 221 ± 5.6 (≈ 73.3 µg/mL) | > 301 | > 301 | – | – | – | – | – | – | – | – | –
11 | COc1ccc(/C=C/C(=O)c2ccc(Br)cc2)cc1OC [Chalcone 14] | 58.9 ± 6.8 | > 288 | > 288 | > 288 | > 288 | – | – | – | – | – | – | – | – | –
12 | O=C(/C=C/c1ccccn1)c1ccccc1 [Chalcone 7] | > 478 | 35.8 ± 7.2 (≈ 7.49 µg/mL) | 441 ± 9.5 (≈ 92.2 µg/mL) | > 478 | > 478 | – | – | > 478 | > 478 | – | – | – | – | –
13 | COc1ccc(/C=C/C(=O)c2ccccc2Cl)cc1 [Chalcone 34] | > 367 | > 367 | > 367 | > 367 | > 367 | – | – | – | – | – | – | – | – | –
14 | Cc1ccc(C(=O)/C=C/c2ccc(N(C)C)cc2)cc1 [Chalcone 19] | 27.8 ± 3.8 | 56.4 ± 4.4 (≈ 15 µg/mL) | 322.7 ± 1.7 (≈ 85.6 µg/mL) | > 377 | > 377 | – | – | > 377 | 112 ± 6.4 (≈ 29.8 µg/mL) | 112 ± 6.4 (≈ 29.8 µg/mL) | > 377 | – | – | > 377
